Data set [1] concerns Escherichia coli expressing NDM-1 (CLB30005, CLB30016). It counts as cell-based. Particulars: with imipenem 1 μg/ml, 95% inhibition of bacterial growth. In a few lines: (§1)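 Clinical strains were grown overnight at 35 °C on blood agar, adjusted to set OD600 in saline and diluted 1:100 into 1.1× CAMHB. Inhibitor was tested with and without imipenem at 1 μg/ml. After 22–24 h at 35 °C, absorbance was read to give synergistic concentration.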

Data set [2] concerns Serratia marcescens expressing IMP-1 (CL5741). It counts as cell-based. The settings on record: with imipenem 1 μg/ml, 95% inhibition of bacterial growth. A digest of the protocol:
as §1

For data set [3], the system named is Pseudomonas aeruginosa PAO1 MB9798 (efflux+, IMP-1). The settings on record: ratio MITC95 PA 9798/MITC95 PA 9799; imipenem at 2 μg/mL. In a few lines:
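Isogenic PAO1 pair (efflux+ MB9798, efflux− MB9799, both IMP-1) tested by microbroth MIC with fixed imipenem and/or ceftazidime, usually at CLSI breakpoint, plus fixed class A/C inhibitor against AmpC. MBL inhibitor titrated; concentration restoring susceptibility recorded and fold difference between strains taken as efflux extent.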

Like-named read-outs stand apart in the source and are kept apart here.

The record followed here is US10544130B2, “Metallo-beta-lactamase inhibitors” (priority 2015, dated 2020).

In the case of `CNc1ccc(-c2ccc(S(=O)(=O)N[C@@H]3CCNC3)c(S(N)(=O)=O)c2-c2nn[nH]n2)cn1` [Example 242], the “Escherichia coli (NDM-1) MITC95” value in data set [1] stood at 0.7813 µM. The “Serratia marcescens (IMP-1) MITC95” value in data set [2] turned out to be 0.7813 µM. For the same compound, the Efflux ratio in data set [3] was determined as 1.00.
Consider `NCC(CO)(CO)NS(=O)(=O)c1ccc(-c2cccc3[nH]c(N)nc23)c(-c2nn[nH]n2)c1S(N)(=O)=O` [Example 247, 4-(2-amino-1H-benzo[d]imidazol-4-yl)-N-1-(1-amino-3-hydroxy-2-(hydroxymethyl)propan-2-yl)-3-(2H-tetrazol-5-yl)benzene-1,2-disulfonamide], for which the “Escherichia coli (NDM-1) MITC95” value in data set [1] was found to be 0.7813 µM. Also, the “Serratia marcescens (IMP-1) MITC95” value in data set [2] came to 1.563 µM. Also, the Efflux ratio in data set [3] worked out at 2.00.
In the same order, the values of `Nc1nc2c(-c3ccc(S(=O)(=O)NC[C@@]4(N)CCNC4)c(S(N)(=O)=O)c3-c3nn[nH]n3)cccc2[nH]1` [Example 251, (R)-4-(2-amino-1H-benzo[d]imidazol-4-yl)-N1-((3-aminopyrrolidin-3-yl)methyl)-3-(2H-tetrazol-5-yl)benzene-1,2-disulfonamide] are 0.7813 µM, 0.7813 µM and 1.00.
In the same order, the values of `NC(=O)c1nc2c(-c3ccc(S(=O)(=O)N[C@@H]4CCNC4)c(S(N)(=O)=O)c3-c3nn[nH]n3)cccc2[nH]1` [Example 271, (R)-4-(4-(N-(pyrrolidin-3-yl)sulfamoyl)-3-sulfamoyl-2-(2H-tetrazol-5-yl)phenyl)-1H-benzo[d]imidazole-2-carboxamide] are 1.563 µM, 0.7813 µM and 0.50.
On the same counts, the results for `NCc1nc2cc(-c3ccc(S(=O)(=O)N[C@@H]4CCNC4)c(S(N)(=O)=O)c3-c3nn[nH]n3)ccc2s1` [Example 275, (R)-4-(2-(aminomethyl)benzo[d]thiazol-5-yl)-N^1-(pyrrolidin-3-yl)-3-(2H-tetrazol-5-yl)benzene-1,2-disulfonamide] are 0.7813 µM, 0.7813 µM and 1.00.
Turning to `CNc1nc2c(-c3ccc(S(=O)(=O)N[C@@H]4CCNC4)c(S(N)(=O)=O)c3-c3nn[nH]n3)cccc2[nH]1` [Example 280, (R)-4-(2-(methylamino)-1H-benzo[d]imidazol-4-yl)-N1-(pyrrolidin-3-yl)-3-(2H-tetrazol-5-yl)benzene-1,2-disulfonamide], the “Escherichia coli (NDM-1) MITC95” value in data set [1] came to 0.7813 µM. Moreover, the “Serratia marcescens (IMP-1) MITC95” value in data set [2] was 0.7813 µM. In data set [3], the Efflux ratio is 0.50.
Consider `NS(=O)(=O)c1c(S(=O)(=O)N[C@@H]2CCNC2)ccc(-c2cnc3cc[nH]c3c2)c1-c1nn[nH]n1` [Example 282, (R)-N1-(pyrrolidin-3-yl)-4-(1H-pyrrolo[3,2-b]pyridin-6-yl)-3-(2H-tetrazol-5-yl)benzene-1,2-disulfonamide], for which, in data set [1], the “Escherichia coli (NDM-1) MITC95” value turned out to be 0.7813 µM. In addition, in data set [2], the “Serratia marcescens (IMP-1) MITC95” value was 0.7813 µM. Besides, the Efflux ratio in data set [3] was 1.00.
Take `NS(=O)(=O)c1c(S(=O)(=O)N[C@@H]2CCNC2)ccc(-c2cccc3ncccc23)c1-c1nn[nH]n1` [Example 287, (R)-N1-(pyrrolidin-3-yl)-4-(quinolin-5-yl)-3-(2H-tetrazol-5-yl)benzene-1,2-disulfonamide]: the “Escherichia coli (NDM-1) MITC95” value in data set [1] amounted to 1.563 µM. In data set [2], the “Serratia marcescens (IMP-1) MITC95” value amounted to 1.563 µM. The Efflux ratio in data set [3] is on record as 1.00.
Turning to `CNc1nc2c(-c3ccc(S(=O)(=O)N[C@H]4CCNC4)c(S(N)(=O)=O)c3-c3nn[nH]n3)cccc2[nH]1` [Example 295, (S)-4-(2-(methylamino)-1H-benzo[d]imidazol-4-yl)-N1-(pyrrolidin-3-yl)-3-(2H-tetrazol-5-yl)benzene-1,2-disulfonamide], the “Escherichia coli (NDM-1) MITC95” value in data set [1] was 0.7813 µM. Also, the “Serratia marcescens (IMP-1) MITC95” value in data set [2] turned out to be 0.7813 µM. Also, in data set [3], the Efflux ratio is on record as 1.00.
In the case of `Cn1c(N)nc2c(-c3ccc(S(=O)(=O)NC[C@H](O)CN)c(S(N)(=O)=O)c3-c3nn[nH]n3)cccc21` [Example 302, (R)-4-(2-amino-1-methyl-1H-benzo[d]imidazol-4-yl)-N1-(3-amino-2-hydroxypropyl)-3-(2H-tetrazol-5-yl)benzene-1,2-disulfonamide], the “Escherichia coli (NDM-1) MITC95” value in data set [1] is 0.7813 µM. The “Serratia marcescens (IMP-1) MITC95” value in data set [2] is 0.7813 µM. In data set [3], the Efflux ratio is on record as 1.00.
With `NC[C@H](O)CNS(=O)(=O)c1ccc(-c2cccc3[nH]c(N)nc23)c(-c2nn[nH]n2)c1S(N)(=O)=O` [Example 304, (S)-4-(2-amino-1H-benzo[d]imidazol-4-yl)-N1-(3-amino-2-hydroxypropyl)-3-(2H-tetrazol-5-yl)-benzene-1,2-disulfonamide], the “Escherichia coli (NDM-1) MITC95” value in data set [1] was determined as 0.3906 µM. Moreover, the “Serratia marcescens (IMP-1) MITC95” value in data set [2] is 0.7813 µM. Also, in data set [3], the Efflux ratio came to 0.50.
In the same order, the values of `NCc1nc2c(-c3ccc(S(=O)(=O)NC[C@@H](O)CN)c(S(N)(=O)=O)c3-c3nn[nH]n3)cccc2s1` [Example 306, (S)—N1-(3-amino-2-hydroxypropyl)-4-(2-(aminomethyl)benzo[d]thiazol-4-yl)-(2H-tetrazol-5-yl)benzene-1,2-disulfonamide] are 0.7813 µM, 0.7813 µM and 1.00.
In the same order, the values of `Nc1nc2c(-c3ccc(S(=O)(=O)NC[C@@H]4CNCCN4)c(S(N)(=O)=O)c3-c3nn[nH]n3)cccc2[nH]1` [Example 310, (S)-4-(2-amino-1H-benzo[d]imidazol-4-yl)-N1-(piperazin-2-ylmethyl)-3-(2H-tetrazol-5-yl)benzene-1,2-disulfonamide] are 0.7813 µM, 0.7813 µM and 1.00.
As for `N[C@H]1CNC[C@H]1NS(=O)(=O)c1ccc(-c2cnc3cc[nH]c3c2)c(-c2nn[nH]n2)c1S(N)(=O)=O` [Example 320], the “Escherichia coli (NDM-1) MITC95” value in data set [1] came to 0.7813 µM. In addition, the “Serratia marcescens (IMP-1) MITC95” value in data set [2] was 0.7813 µM. In addition, in data set [3], the Efflux ratio came out at 2.00.
For the compound `Nc1ncc(-c2ccc(S(=O)(=O)N[C@@H]3CNC[C@@H]3N)c(S(N)(=O)=O)c2-c2nn[nH]n2)s1` [Example 321, N^1-((3R,4S)-4-aminopyrrolidin-3-yl)-4-(2-aminothiazol-5-yl)-3-(2H-tetrazol-5-yl)benzene-1,2-disulfonamide], the “Escherichia coli (NDM-1) MITC95” value in data set [1] was found to be 0.7813 µM. Also, the “Serratia marcescens (IMP-1) MITC95” value in data set [2] amounted to 1.563 µM. Moreover, the Efflux ratio in data set [3] is 2.00.
As to `C[C@H](N)Cc1nc2c(-c3ccc(S(N)(=O)=O)c(S(N)(=O)=O)c3-c3nn[nH]n3)cccc2[nH]1` [Example 442, (S)-4-(2-(2-aminopropyl)-1H-benzo[d]imidazol-4-yl)-3-(2H-tetrazol-5-yl)benzene-1,2-disulfonamide], the “Escherichia coli (NDM-1) MITC95” value in data set [1] came out at 1.563 µM. Moreover, the “Serratia marcescens (IMP-1) MITC95” value in data set [2] was 1.563 µM.
With `NCCNS(=O)(=O)c1ccc(-c2cccc(NC(=O)[C@H](N)CO)c2)c(-c2nn[nH]n2)c1S(N)(=O)=O` [Example 454, (R)-2-amino-N-(4′-(N-(2-aminoethyl)sulfamoyl)-3′-sulfamoyl-2′-(2H-tetrazol-5-yl)-[1,1′-biphenyl]-3-yl)-3-hydroxypropanamide], in data set [1], the “Escherichia coli (NDM-1) MITC95” value is 1.563 µM. In data set [2], the “Serratia marcescens (IMP-1) MITC95” value was found to be 3.125 µM.
On the same counts, the results for `NCc1nc2cc(-c3ccc(S(=O)(=O)NC[C@H](O)CN)c(S(N)(=O)=O)c3-c3nn[nH]n3)ccc2s1` [Example 463, (R)—N1-(3-amino-2-hydroxypropyl)-4-(2-(aminomethyl)benzo[d]thiazol-5-yl)-3-(2H-tetrazol-5-yl)benzene-1,2-disulfonamide] are 0.7813 µM and 0.7813 µM.
In the same order, the values of `CNc1nc2c(-c3ccc(S(=O)(=O)NCCN)c(S(N)(=O)=O)c3-c3nn[nH]n3)cccc2[nH]1` [Example 467, N1-(2-aminoethyl)-4-(2-(methylamino)-1H-benzo[d]imidazol-4-yl)-3-(2H-tetrazol-5-yl)benzene-1,2-disulfonamide] are 0.7813 µM and 0.7813 µM.
On the same counts, the results for `NS(=O)(=O)c1c(S(=O)(=O)N[C@@H]2CCNC2)ccc(-c2cccc(Nc3nc(CO)cs3)c2)c1-c1nn[nH]n1` [Example 470, (R)-3′-((4-(hydroxymethyl)thiazol-2-yl)amino)-N4-(pyrrolidin-3-yl)-2-(2H-tetrazol-5-yl)-[1,1′-biphenyl]-3,4-disulfonamide] are 0.7813 µM and 1.563 µM.
In the case of `Nc1ccc(-c2ccc(S(=O)(=O)NC3CNC3)c(S(N)(=O)=O)c2-c2nn[nH]n2)cn1` [Example 493, 4-(6-aminopyridin-3-yl)-N1-(azetidin-3-yl)-3-(2H-tetrazol-5-yl)benzene-1,2-disulfonamide], in data set [1], the “Escherichia coli (NDM-1) MITC95” value amounted to 0.3906 µM. Also, the “Serratia marcescens (IMP-1) MITC95” value in data set [2] amounted to 0.3906 µM.
On to `NCCN1CC[C@@H](NS(=O)(=O)c2ccc(-c3ccc(N)nc3)c(-c3nn[nH]n3)c2S(N)(=O)=O)C1` [Example 500, (R)—N1-(1-(2-aminoethyl)pyrrolidin-3-yl)-4-(6-aminopyridin-3-yl)-3-(2H-tetrazol-5-yl)benzene-1,2-disulfonamide], for which, in data set [1] (CLB30016), the “Escherichia coli (NDM-1) MITC95” value came to 1.563 µM. In addition, the “Serratia marcescens (IMP-1) MITC95” value in data set [2] (CL5741) turned out to be 1.563 µM.
